Data reported in EP4725957A1, “GROUP OF CYCLIC ALKALINE LIPOPEPTIDE COMPOUNDS, AND PREPARATION METHOD THEREFOR AND USE THEREOF” (Institute of Medicinal Biotechnology, Chinese Academy of …, priority 2023, dated 2024).
Converted amounts (≈) assume the structure as drawn. Bridge positions count the residues as written; N and C are the ends. Square brackets hold non-standard residues; d marks the D form. Peptide text beside a SMILES is read from it. * marks the point of attachment. Dab(CH2SO3H) = N[C@@H](CCNCS(=O)(=O)O)C(=O)O; Heptanoyl(6-Me) = CC(C)CCCCC(=O)*; Sulfomethyl = O=S(=O)(O)C*; X1 = CC[C@H](C)CCCCC(=O)*; dDab = NCC[C@@H](N)C(=O)O; Octanoyl = CCCCCCCC(=O)*; Orn = NCCC[C@H](N)C(=O)O; Dab = NCC[C@H](N)C(=O)O; Dap = NC[C@H](N)C(=O)O

Columns and labels:
Format in all cases: cell-based
[1] = Nephrotoxicity assay: in vitro cytotoxicity of HK-2 cells by CCK-8 assay; conditions: human, HK-2 cells (human renal), 72 h incubation with drug-containing medium
Method in brief: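 Compounds in sterile water, diluted to final 500, 250, 200, 100, 50, 25 and 12.5 µg/mL, were applied for 72 h to human HK-2 kidney cells. Absorbance at 450 nm after 3 h CCK-8 gave viability against untreated wells, and IC50 came from logarithmic regression; three replicates.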

[2] = system: Pseudomonas aeruginosa ATCC 27853; conditions: ATCC 27853
Method in brief: (§1)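 In this CLSI-based assay, serially halved compound (final 64–0.03 mg/L) was exposed to (2-4) × 10^5 CFU/mL bacteria in MH broth at 35-37°C for 16-20 h. The readout was the MIC.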

[3] = system: Escherichia coli ATCC BAA-2523; conditions: ATCC BAA-2523
Method in brief: as §1

[4] = system: Pseudomonas aeruginosa PAE19-3; conditions: PAE19-3
Method in brief: as §1

[5] = system: Acinetobacter baumannii ABA19-1; conditions: ABA19-1
Method in brief: as §1

[6] = system: Escherichia coli ATCC BAA-2340 (KPC); conditions: ATCC BAA-2340
Method in brief: as §1

[7] = system: Acinetobacter baumannii NCTC 13304 (OXA-27); conditions: NCTC 13304
Method in brief: as §1

[8] = system: Klebsiella pneumoniae KPN+19-15; conditions: KPN+19-15
Method in brief: as §1

[9] = system: Klebsiella pneumoniae ATCC BAA-1705 (KPC); conditions: ATCC BAA-1705
Method in brief: as §1

| Structure (SMILES) | IC50 at 72 h [1] [µg/mL] | MIC [2] [µg/mL] | MIC [3] [µg/mL] | MIC [4] [µg/mL] | MIC [5] [µg/mL] | MIC [6] [µg/mL] | MIC [7] [µg/mL] | MIC [8] [µg/mL] | MIC [9] [µg/mL] |
| --- | --- | --- | --- | --- | --- | --- | --- | --- | --- |
| CCCCCCCC(=O)N[C@@H](CCN)C(=O)N[C@H](C(=O)N[C@H](CCN)C(=O)N[C@H]1CCNC(=O)[C@H]([C@@H](C)O)NC(=O)[C@H](CCN)NC(=O)[C@H](CCN)NC(=O)[C@H]([C@@H](C)O)NC(=O)[C@@H](Cc2ccccc2)NC(=O)[C@H](CCN)NC1=O)[C@@H](C)O [Compound 13, Octanoyl-Dab-Thr-D-Dab-ring(4-10)[Dab-Dab-D-Phe-Thr-Dab-Dab-Thr]] (Octanoyl-[Dab]T[dDab][Dab][Dab][dF]T[Dab][Dab]T; lactam 4-C) | > 500 | 1 (≈ 0.849 µM) | ≤0.03 | 1 (≈ 0.849 µM) | ≤0.03 | ≤0.03 | ≤0.03 | ≤0.03 | 0.06 (≈ 0.051 µM) |
| CC(C)CCCCC(=O)N[C@@H](CCN)C(=O)N[C@H](C(=O)N[C@@H](CN)C(=O)N[C@H]1CCNC(=O)[C@H]([C@@H](C)OCS(=O)(=O)O)NC(=O)[C@H](CCN)NC(=O)[C@H](CCN)NC(=O)[C@H]([C@@H](C)O)NC(=O)[C@@H](Cc2ccccc2)NC(=O)[C@H](CCN)NC1=O)[C@@H](C)O [Compound 115, 6-methylheptanoyl-Dab-Thr-Dap-ring(4-10)[Dab-Dab-D-Phe-Thr-Dab-Dab-Thr(CH2SO3H)]] ({Heptanoyl(6-Me)}-[Dab]T[Dap][Dab][Dab][dF]T[Dab][Dab]T(Sulfomethyl); lactam 4-C) | > 500 | 0.25 (≈ 0.199 µM) | 0.03 (≈ 0.0239 µM) | 0.25 (≈ 0.199 µM) | 0.06 (≈ 0.0477 µM) | 0.03 (≈ 0.0239 µM) | 0.06 (≈ 0.0477 µM) | 0.125 (≈ 0.0994 µM) | 0.125 (≈ 0.0994 µM) |
| CC(C)CCCCC(=O)N[C@@H](CCN)C(=O)N[C@H](C(=O)N[C@H](CO)C(=O)N[C@H]1CCNC(=O)[C@H]([C@@H](C)O)NC(=O)[C@H](CCN)NC(=O)[C@H](CCN)NC(=O)[C@H]([C@@H](C)O)NC(=O)[C@@H](Cc2ccccc2)NC(=O)[C@H](CCCN)NC1=O)[C@@H](C)O [Compound 67, 6-methylheptanoyl-Dab-Thr-D-Ser-ring(4-10)[Dab-Orn-D-Phe-Thr-Dab-Dab-Thr]] ({Heptanoyl(6-Me)}-[Dab]T[dS][Dab][Orn][dF]T[Dab][Dab]T; lactam 4-C) | > 500 | 64 (≈ 54.3 µM) | 0.25 (≈ 0.212 µM) | 4 (≈ 3.39 µM) | 0.25 (≈ 0.212 µM) | 0.25 (≈ 0.212 µM) | 0.25 (≈ 0.212 µM) | 0.5 (≈ 0.424 µM) | 0.25 (≈ 0.212 µM) |
| CC(C)CCCCC(=O)N[C@@H](CCNCS(=O)(=O)O)C(=O)N[C@H](C(=O)N[C@H](CO)C(=O)N[C@H]1CCNC(=O)[C@H]([C@@H](C)O)NC(=O)[C@H](CCN)NC(=O)[C@H](CCN)NC(=O)[C@H]([C@@H](C)O)NC(=O)[C@@H](Cc2ccccc2)NC(=O)[C@H](CCN)NC1=O)[C@@H](C)O [Compound 108, 6-methylheptanoyl-Dab(CH2SO3H)-Thr-D-Ser-ring(4-10)[Dab-Dab-D-Phe-Thr-Dab-Dab-Thr]] ({Heptanoyl(6-Me)}-[Dab(CH2SO3H)]T[dS][Dab][Dab][dF]T[Dab][Dab]T; lactam 4-C) | > 500 | 0.25 (≈ 0.199 µM) | 0.06 (≈ 0.0477 µM) | 0.5 (≈ 0.397 µM) | 0.25 (≈ 0.199 µM) | 0.06 (≈ 0.0477 µM) | 0.06 (≈ 0.0477 µM) | 0.125 (≈ 0.0993 µM) | 0.125 (≈ 0.0993 µM) |
| CC(C)CCCCC(=O)N[C@@H](CCN)C(=O)N[C@H](C(=O)N[C@@H](CN)C(=O)N[C@H]1CCNC(=O)[C@H]([C@@H](C)O)NC(=O)[C@H](CCN)NC(=O)[C@H](CCN)NC(=O)[C@H]([C@@H](C)O)NC(=O)[C@@H](Cc2ccccc2)NC(=O)[C@H](CCN)NC1=O)[C@@H](C)OCS(=O)(=O)O [Compound 113, 6-methylheptanoyl-Dab-Thr(CH2SO3H)-Dap-ring(4-10)[Dab-Dab-D-Phe-Thr-Dab-Dab-Thr]] ({Heptanoyl(6-Me)}-[Dab]T(Sulfomethyl)[Dap][Dab][Dab][dF]T[Dab][Dab]T; lactam 4-C) | > 500 | 0.25 (≈ 0.199 µM) | 0.03 (≈ 0.0239 µM) | 0.25 (≈ 0.199 µM) | 0.06 (≈ 0.0477 µM) | 0.03 (≈ 0.0239 µM) | 0.06 (≈ 0.0477 µM) | 0.125 (≈ 0.0994 µM) | 0.125 (≈ 0.0994 µM) |
| CC(C)CCCCC(=O)N[C@@H](CCN)C(=O)N[C@H](C(=O)N[C@@H](CCN)C(=O)N[C@H]1CCNC(=O)[C@H]([C@@H](C)O)NC(=O)[C@H](CCN)NC(=O)[C@H](CCN)NC(=O)[C@H]([C@@H](C)O)NC(=O)[C@@H](Cc2ccccc2)NC(=O)[C@H](CCN)NC1=O)[C@@H](C)O [Compound 17, 6-methylheptanoyl-Dab-Thr-Dab-ring(4-10)[Dab-Dab-D-Phe-Thr-Dab-Dab-Thr]] ({Heptanoyl(6-Me)}-[Dab]T[Dab][Dab][Dab][dF]T[Dab][Dab]T; lactam 4-C) | > 500 | 0.5 (≈ 0.425 µM) | 0.06 (≈ 0.051 µM) | 0.5 (≈ 0.425 µM) | 0.5 (≈ 0.425 µM) | ≤0.03 | 0.25 (≈ 0.212 µM) | ≤0.03 | 0.5 (≈ 0.425 µM) |
| CC(C)CCCCC(=O)N[C@@H](CCN)C(=O)N[C@H](C(=O)N[C@@H](CN)C(=O)N[C@H]1CCNC(=O)[C@H]([C@@H](C)O)NC(=O)[C@H](CCN)NC(=O)[C@H](CCN)NC(=O)[C@H]([C@@H](C)OCS(=O)(=O)O)NC(=O)[C@@H](Cc2ccccc2)NC(=O)[C@H](CCN)NC1=O)[C@@H](C)O [Compound 114, 6-methylheptanoyl-Dab-Thr-Dap-ring(4-10)[Dab-Dab-D-Phe-Thr(CH2SO3H)-Dab-Dab-Thr]] ({Heptanoyl(6-Me)}-[Dab]T[Dap][Dab][Dab][dF]T(Sulfomethyl)[Dab][Dab]T; lactam 4-C) | > 500 | 0.25 (≈ 0.199 µM) | 0.03 (≈ 0.0239 µM) | 0.25 (≈ 0.199 µM) | 0.06 (≈ 0.0477 µM) | 0.03 (≈ 0.0239 µM) | 0.06 (≈ 0.0477 µM) | 0.125 (≈ 0.0994 µM) | 0.125 (≈ 0.0994 µM) |
| CC[C@H](C)CCCCC(=O)N[C@@H](CCN)C(=O)N[C@H](C(=O)N[C@@H](CN)C(=O)N[C@H]1CCNC(=O)[C@H]([C@@H](C)O)NC(=O)[C@H](CCN)NC(=O)[C@H](CCN)NC(=O)[C@H](CC(C)C)NC(=O)[C@@H](Cc2ccccc2)NC(=O)[C@H](CCN)NC1=O)[C@@H](C)O [Compound 36, (S)-6-methyloctanoyl-Dab-Thr-Dap-ring(4-10)[Dab-Dab-D-Phe-Leu-Dab-Dab-Thr]] (X1-[Dab]T[Dap][Dab][Dab][dF]L[Dab][Dab]T; lactam 4-C) | 237 ± 5.3 (≈ 199 µM) | 0.03 (≈ 0.0252 µM) | 0.03 (≈ 0.0252 µM) | 0.25 (≈ 0.21 µM) | 0.03 (≈ 0.0252 µM) | 0.03 (≈ 0.0252 µM) | 0.03 (≈ 0.0252 µM) | 0.03 (≈ 0.0252 µM) | 0.03 (≈ 0.0252 µM) |
| CC(C)CCCCC(=O)N[C@@H](CCN)C(=O)N[C@H](C(=O)N[C@H](CO)C(=O)N[C@H]1CCNC(=O)[C@H]([C@@H](C)O)NC(=O)[C@H](CN)NC(=O)[C@H](CCN)NC(=O)[C@H]([C@@H](C)O)NC(=O)[C@@H](Cc2ccccc2)NC(=O)[C@H](CCN)NC1=O)[C@@H](C)O [Compound 82, 6-methylheptanoyl-Dab-Thr-D-Ser-ring(4-10)[Dab-Dab-D-Phe-Thr-Dab-Dap-Thr]] ({Heptanoyl(6-Me)}-[Dab]T[dS][Dab][Dab][dF]T[Dab][Dap]T; lactam 4-C) | > 500 | >64 | 0.03 (≈ 0.0261 µM) | 64 (≈ 55.6 µM) | 0.06 (≈ 0.0522 µM) | 0.03 (≈ 0.0261 µM) | ≤0.03 | 0.5 (≈ 0.435 µM) | 0.25 (≈ 0.217 µM) |
| CC(C)CCCCC(=O)N[C@@H](CCN)C(=O)N[C@H](C(=O)N[C@@H](CN)C(=O)N[C@H]1CCNC(=O)[C@H]([C@@H](C)O)NC(=O)[C@H](CCNCS(=O)(=O)O)NC(=O)[C@H](CCN)NC(=O)[C@H]([C@@H](C)O)NC(=O)[C@@H](Cc2ccccc2)NC(=O)[C@H](CCN)NC1=O)[C@@H](C)O [Compound 120, 6-methylheptanoyl-Dab-Thr-Dap-ring(4-10)[Dab-Dab-D-Phe-Thr-Dab-Dab(CH2SO3H)-Thr]] ({Heptanoyl(6-Me)}-[Dab]T[Dap][Dab][Dab][dF]T[Dab][Dab(CH2SO3H)]T; lactam 4-C) | > 500 | 0.25 (≈ 0.199 µM) | 0.06 (≈ 0.0477 µM) | 0.5 (≈ 0.398 µM) | 0.25 (≈ 0.199 µM) | 0.06 (≈ 0.0477 µM) | 0.06 (≈ 0.0477 µM) | 0.125 (≈ 0.0994 µM) | 0.125 (≈ 0.0994 µM) |
